Laboratory results taken from patent US8993574B2, “Pyrrole antifungal agents” (F2G Ltd, priority 2008, dated 2015).
Values after ≈ are worked out from the molar mass of the structure shown.

Experiments:
Assay type in all cases: cell-based
Aspergillus terreus AT4 [1] = experiment: MIC, YAG medium; details: 24 h at 35° C, MIC banded into grades; for MIC: Aspergillus terreus, read-out: MIC grade, A. terreus
Procedure: (§1) Between 1 and 5 mgs of compound were accurately weighed out into a sterile Eppendorf tube. The compound was dissolved in DMSO to give a solution containing 5 mg/mL. Tubes were stored at −20° C. until required.
(§2) On the day of testing thawed solutions were vortex mixed to ensure homogeneity. 30 μL of solution was removed and added to 570 μL of sterile water in a separate sterile Eppendorf. The thoroughly mixed solution was used to prepare a series of doubling dilutions in water, in a deep well plate. Thirteen replicate plates were prepared using a Minitrak by aspirating 20 μL from each well into eleven clear polystyrene 96 well plates.
(§3) Spores of Aspergillus spp. (Aspergillus fumigatus [two strains], Aspergillus terreus [two strains], Aspergillus niger and Aspergillus flavus) were harvested from cultures grown on Sabarauds agar for 5 days, and resuspended in PBS/Tween 80 to approx 1×10^7 cfu/mL. Each organism suspension was diluted in YAG medium (1% glucose, 1% ammonium chloride and 0.5% yeast extract) to 0.5−2×10^4 cfu/mL. 80 μL of an organism suspension was added to each well of the plate containing drug dilutions.
(§4) This produced MIC plates with a drug range 50-0.05 mg/L and organism inocula of 1−2×10^4 cfu/mL for Aspergillus spp. All plates were incubated for 24 h at 35° C. Growth was assessed by monitoring the optical density at 485 nm for each well. The MIC of a compound is the lowest drug concentration that inhibits growth of an organism by >70% compared with a drug free control. MICs are recorded as mg/L. In cases where the MIC of an organism is […] mg/L the MIC is repeated using a concentration range of 0.5-0.0005 mg/L.
(§5) The following organisms were tested: Aspergillus flavus, Aspergillus fumigatus AF293 and AF210, Aspergillus niger, Aspergillus terreus AT4 and AT49, Candida albicans, Candida glabrata, Candida krusei, Candida parapsilosis and Candida tropicalis.

Aspergillus flavus [2] = experiment: MIC, YAG medium; details: 24 h at 35° C, MIC banded into grades; for MIC: Aspergillus flavus, 24 h, read-out: MIC grade, A. flavus
Procedure: as §1, §2, §3, §4, §5

Aspergillus terreus AT49 [3] = experiment: MIC, YAG medium; details: 24 h at 35° C, MIC banded into grades; for MIC: Aspergillus terreus, read-out: MIC grade, A. terreus 49
Procedure: as §1, §2, §3, §4, §5

[4] = tested on: Aspergillus fumigatus AF293; experiment: MIC, YAG medium; details: 24 h at 35° C, MIC banded into grades; for MIC: Aspergillus fumigatus, read-out: MIC grade, A. fumigatus
Procedure: as §1, §2, §3, §4, §5

Aspergillus niger [5] = experiment: MIC, YAG medium; details: 24 h at 35° C, MIC banded into grades; for MIC: Aspergillus niger, read-out: MIC grade, A. niger
Procedure: as §1, §2, §3, §4, §5

[6] = tested on: Aspergillus fumigatus AF210; experiment: MIC, YAG medium; details: 24 h at 35° C, MIC banded into grades; for MIC: Aspergillus fumigatus, read-out: MIC grade, A. fumigatus 210
Procedure: as §1, §2, §3, §4, §5

Aspergillus terreus AT4 [7] = experiment: MIC, RPMI medium; details: for MIC: Aspergillus terreus, AT4, MIC banded into grades, read-out: MIC grade, A. terreus
Procedure: as §1, §2
(§6) Assays were also performed in RPMI medium for both Aspergillus spp. (strains described above) and Candida spp. (Candida albicans, Candida glabrata, Candida krusei, Candida parapsilosis and Candida tropicalis). To perform MIC tests in this medium, dilutions of compounds are prepared in microtitre plates as described above. Fungal strains to be tested are grown and harvested in an identical manner to that described above, and each organism suspension was diluted in RPMI medium, containing 2% glucose and 0.135 M MOPS buffer (pH 7.0) to 0.5-2×10^4 cfu/mL, rather than in YAG medium. 80 μL of an organism suspension was added to each well of the plate containing drug dilutions.
(§7) This produced MIC plates with a drug range 50-0.05 mg/L and organism inocula of 1−2×10^4 cfu/mL. All plates were incubated for 24-48 h at 35° C. Growth was assessed by monitoring the optical density at 485 nm for each well. The MIC of a compound is the lowest drug concentration that inhibits growth of an organism by >80% compared with a drug free control.
as §5

Aspergillus flavus [8] = experiment: MIC, RPMI medium; details: MIC banded into grades; for MIC: Aspergillus flavus, read-out: MIC grade, A. flavus
Procedure: as §1, §2, §6, §7, §5

Aspergillus terreus AT49 [9] = experiment: MIC, RPMI medium; details: for MIC: Aspergillus terreus, AT49, MIC banded into grades, read-out: MIC grade, A. terreus 49
Procedure: as §1, §2, §6, §7, §5

[10] = tested on: Aspergillus fumigatus AF293; experiment: MIC, RPMI medium; details: for MIC: Aspergillus fumigatus, AF293, MIC banded into grades, read-out: MIC grade, A. fumigatus
Procedure: as §1, §2, §6, §7, §5

Aspergillus niger [11] = experiment: MIC, RPMI medium; details: MIC banded into grades; for MIC: Aspergillus niger, read-out: MIC grade, A. niger
Procedure: as §1, §2, §6, §7, §5

[12] = tested on: Aspergillus fumigatus AF210; experiment: MIC, RPMI medium; details: for MIC: Aspergillus fumigatus, AF210, MIC banded into grades, read-out: MIC grade, A. fumigatus 210
Procedure: as §1, §2, §6, §7, §5

Cc1cc(C)nc(N2CCN(c3ccc(NC(=O)C(=O)c4c(-c5ccccc5)cc(C)n4C)cc3O)CC2)c1 [Example 22, 2-(1,5-Dimethyl-3-phenyl-1H-pyrrol-2-yl)-N-{4-[4-(4,6-dimethyl-pyridin-2-yl)-piperazin-1-yl]-3-hydroxy-phenyl}-2-oxo-acetamide]
MIC (Aspergillus terreus AT4 [1]): < 1 µg/mL
MIC (Aspergillus flavus [2]): < 1 µg/mL
MIC (Aspergillus terreus AT49 [3]): < 1 µg/mL
MIC [4]: < 1 µg/mL
MIC (Aspergillus niger [5]): < 1 µg/mL
MIC [6]: < 1 µg/mL
MIC (Aspergillus terreus AT4 [7]): < 1 µg/mL
MIC (Aspergillus flavus [8]): < 1 µg/mL
MIC (Aspergillus terreus AT49 [9]): < 1 µg/mL
MIC [10]: < 1 µg/mL
MIC (Aspergillus niger [11]): < 1 µg/mL
MIC [12]: < 1 µg/mL

COCCn1c(C)cc(-c2ccccc2)c1C(=O)C(=O)Nc1ccc(N2CCN(CC(C)C)CC2)cc1F [Example 110, N-[2-Fluoro-4-(4-isobutyl-piperazin-1-yl)-phenyl]-2-[1-(2-methoxy-ethyl)-5-methyl-3-phenyl-1H-pyrrol-2-yl]-2-oxo-acetamide]
MIC (Aspergillus terreus AT4 [1]): < 1 µg/mL
MIC (Aspergillus flavus [2]): 1 to 10 µg/mL (≈ 1.92 to 19.2 µM)
MIC (Aspergillus terreus AT49 [3]): 1 to 10 µg/mL (≈ 1.92 to 19.2 µM)
MIC [4]: < 1 µg/mL
MIC (Aspergillus niger [5]): < 1 µg/mL
MIC [6]: < 1 µg/mL
MIC (Aspergillus terreus AT4 [7]): < 1 µg/mL
MIC (Aspergillus flavus [8]): 1 to 10 µg/mL (≈ 1.92 to 19.2 µM)
MIC (Aspergillus terreus AT49 [9]): < 1 µg/mL
MIC [10]: < 1 µg/mL
MIC (Aspergillus niger [11]): 1 to 10 µg/mL (≈ 1.92 to 19.2 µM)
MIC [12]: < 1 µg/mL

Cc1cc(-c2ccccc2)c(C(=O)C(=O)Nc2cnc3ccccc3c2)n1C [Example 37, 2-(1,5-Dimethyl-3-phenyl-1H-pyrrol-2-yl)-2-oxo-N-quinolin-3-yl-acetamide]
MIC (Aspergillus terreus AT4 [1]): < 1 µg/mL
MIC (Aspergillus flavus [2]): < 1 µg/mL
MIC (Aspergillus terreus AT49 [3]): < 1 µg/mL
MIC [4]: < 1 µg/mL
MIC (Aspergillus niger [5]): < 1 µg/mL
MIC [6]: < 1 µg/mL
MIC (Aspergillus terreus AT4 [7]): < 1 µg/mL
MIC (Aspergillus flavus [8]): < 1 µg/mL
MIC (Aspergillus terreus AT49 [9]): < 1 µg/mL
MIC [10]: 1 to 10 µg/mL (≈ 2.71 to 27.1 µM)
MIC (Aspergillus niger [11]): 1 to 10 µg/mL (≈ 2.71 to 27.1 µM)
MIC [12]: 1 to 10 µg/mL (≈ 2.71 to 27.1 µM)

Cc1cc(-c2ccccc2)c(C(=O)C(=O)Nc2cccc3c(F)cccc23)n1C [Example 127, 2-(1,5-Dimethyl-3-phenyl-1H-pyrrol-2-yl)-N-(5-fluoro-naphthalen-1-yl)-2-oxo-acetamide]
MIC (Aspergillus terreus AT4 [1]): < 1 µg/mL
MIC (Aspergillus flavus [2]): < 1 µg/mL
MIC (Aspergillus terreus AT49 [3]): < 1 µg/mL
MIC [4]: > 10 µg/mL
MIC (Aspergillus niger [5]): < 1 µg/mL
MIC [6]: 1 to 10 µg/mL (≈ 2.59 to 25.9 µM)
MIC (Aspergillus terreus AT4 [7]): < 1 µg/mL
MIC (Aspergillus flavus [8]): < 1 µg/mL
MIC (Aspergillus terreus AT49 [9]): < 1 µg/mL
MIC [10]: > 10 µg/mL
MIC (Aspergillus niger [11]): < 1 µg/mL
MIC [12]: > 10 µg/mL

Cc1cc(-c2ccccc2)c(C(=O)C(=O)Nc2cccc3cccnc23)n1C [Example 31, 2-(1,5-Dimethyl-3-phenyl-1H-pyrrol-2-yl)-2-oxo-N-quinolin-8-yl-acetamide]
MIC (Aspergillus terreus AT4 [1]): < 1 µg/mL
MIC (Aspergillus flavus [2]): < 1 µg/mL
MIC (Aspergillus terreus AT49 [3]): < 1 µg/mL
MIC [4]: 1 to 10 µg/mL (≈ 2.71 to 27.1 µM)
MIC (Aspergillus niger [5]): 1 to 10 µg/mL (≈ 2.71 to 27.1 µM)
MIC [6]: 1 to 10 µg/mL (≈ 2.71 to 27.1 µM)
MIC (Aspergillus terreus AT4 [7]): < 1 µg/mL
MIC (Aspergillus flavus [8]): 1 to 10 µg/mL (≈ 2.71 to 27.1 µM)
MIC (Aspergillus terreus AT49 [9]): < 1 µg/mL
MIC [10]: 1 to 10 µg/mL (≈ 2.71 to 27.1 µM)
MIC (Aspergillus niger [11]): 1 to 10 µg/mL (≈ 2.71 to 27.1 µM)
MIC [12]: 1 to 10 µg/mL (≈ 2.71 to 27.1 µM)

CCCc1cc(-c2ccccc2)c(C(=O)C(=O)Nc2ccc(N3CCN(c4cc(C)cc(C)n4)CC3)cc2)n1C [Example 124, N-{4-[4-(4,6-Dimethyl-pyridin-2-yl)-piperizin-1-yl]-phenyl}-2-[1-methyl-3-phenyl-5-propyl-1H-pyrrol-2-yl)-2-oxo-acetamide]
MIC grade, A. terreus (Aspergillus terreus AT4 [1]): 3 (A grade of 3 represents an MIC of less than 1 mg/L)
MIC grade, A. flavus (Aspergillus flavus [2]): 3 (A grade of 3 represents an MIC of less than 1 mg/L)
MIC grade, A. terreus 49 (Aspergillus terreus AT49 [3]): 3 (A grade of 3 represents an MIC of less than 1 mg/L)
MIC grade, A. fumigatus [4]: 3 (A grade of 3 represents an MIC of less than 1 mg/L)
MIC grade, A. niger (Aspergillus niger [5]): 3 (A grade of 3 represents an MIC of less than 1 mg/L)
MIC grade, A. fumigatus 210 [6]: 3 (A grade of 3 represents an MIC of less than 1 mg/L)
MIC grade, A. terreus (Aspergillus terreus AT4 [7]; MIC banded into grades): 2 (A grade of 2 represents an MIC of from 1 to 10 mg/L)
MIC grade, A. flavus (Aspergillus flavus [8]): 2 (A grade of 2 represents an MIC of from 1 to 10 mg/L)
MIC grade, A. terreus 49 (Aspergillus terreus AT49 [9]; MIC banded into grades): 2 (A grade of 2 represents an MIC of from 1 to 10 mg/L)
MIC grade, A. fumigatus ([10]; MIC banded into grades): 2 (A grade of 2 represents an MIC of from 1 to 10 mg/L)
MIC grade, A. niger (Aspergillus niger [11]): 1 (a grade of 1 represents an MIC of greater than 10 mg/L)
MIC grade, A. fumigatus 210 ([12]; MIC banded into grades): 2 (A grade of 2 represents an MIC of from 1 to 10 mg/L)

Cc1cc(-c2ccccc2)c(C(=O)C(=O)Nc2cccc3c2CCO3)n1C [Example 23, N-(2,3-Dihydro-benzofuran-4-yl)-2-(1,5-dimethyl-3-phenyl-1H-pyrrol-2-yl)-2-oxo-acetamide]
MIC (Aspergillus terreus AT4 [1]): < 1 µg/mL
MIC (Aspergillus flavus [2]): < 1 µg/mL
MIC (Aspergillus terreus AT49 [3]): < 1 µg/mL
MIC [4]: < 1 µg/mL
MIC (Aspergillus niger [5]): < 1 µg/mL
MIC [6]: 1 to 10 µg/mL (≈ 2.77 to 27.7 µM)
MIC (Aspergillus terreus AT4 [7]): < 1 µg/mL
MIC (Aspergillus flavus [8]): < 1 µg/mL
MIC (Aspergillus terreus AT49 [9]): < 1 µg/mL
MIC [10]: 1 to 10 µg/mL (≈ 2.77 to 27.7 µM)
MIC (Aspergillus niger [11]): 1 to 10 µg/mL (≈ 2.77 to 27.7 µM)
MIC [12]: 1 to 10 µg/mL (≈ 2.77 to 27.7 µM)

Cc1cc(C)nc(N2CCN(c3ccc(NC(=O)C(=O)c4c(-c5ccccc5)cc(C)n4Cc4ccccc4)cc3)CC2)c1 [Example 48, 2-(1-Benzyl-5-methyl-3-phenyl-1H-pyrrol-2-yl)-N-{4-[4-(4,6-dimethyl-pyridin-2-yl)-piperazin-1-yl]-phenyl}-2-oxo-acetamide]
MIC (Aspergillus terreus AT4 [1]): > 10 µg/mL
MIC (Aspergillus flavus [2]): > 10 µg/mL
MIC (Aspergillus terreus AT49 [3]): > 10 µg/mL
MIC [4]: 1 to 10 µg/mL (≈ 1.71 to 17.1 µM)
MIC (Aspergillus niger [5]): > 10 µg/mL
MIC [6]: < 1 µg/mL
MIC (Aspergillus terreus AT4 [7]): > 10 µg/mL
MIC (Aspergillus flavus [8]): > 10 µg/mL
MIC (Aspergillus terreus AT49 [9]): > 10 µg/mL
MIC [10]: > 10 µg/mL
MIC (Aspergillus niger [11]): > 10 µg/mL
MIC [12]: > 10 µg/mL
